ChEMBL document CHEMBL3045363, “Synthesis of 3-methylflavones and their antioxidant and antibacterial activities” (Med Chem Res, 2012)
Values after ≈ are worked out from the molar mass of the structure shown.

Experiments:
Type in all cases: functional
Pseudomonas aeruginosa = assay: Antimicrobial activity against Pseudomonas aeruginosa at 1 ug/ul after 24 hr by agar diffusion method
Bacillus cereus = assay: Antimicrobial activity against Bacillus cereus at 1 ug/ul after 24 hr by agar diffusion method
Klebsiella pneumoniae = assay: Antimicrobial activity against Klebsiella pneumoniae at 1 ug/ul after 24 hr by agar diffusion method
Bacillus subtilis = assay: Antimicrobial activity against Bacillus subtilis at 1 ug/ul after 24 hr by agar diffusion method
[1] = Antioxidant activity assessed as DPPH scavenging activity after 20 min by spectrophotometry
Escherichia coli = assay: Antimicrobial activity against Escherichia coli at 1 ug/ul after 24 hr by agar diffusion method
Staphylococcus aureus = assay: Antimicrobial activity against Staphylococcus aureus at 1 ug/ul after 24 hr by agar diffusion method

| SMILES | IC50 [1] [µg/mL] | growth inhibition (GI) (Pseudomonas aeruginosa) [%] | growth inhibition (GI) (Bacillus cereus) [%] | growth inhibition (GI) (Klebsiella pneumoniae) [%] | growth inhibition (GI) (Bacillus subtilis) [%] | growth inhibition (GI) (Escherichia coli) [%] | growth inhibition (GI) (Staphylococcus aureus) [%] |
| --- | --- | --- | --- | --- | --- | --- | --- |
| Cc1cccc(-c2oc3ccccc3c(=O)c2C)c1 | 250 (≈ 999 µM) | 56 | 80 | 70 | 69 | 50 | 76 |
| COc1cccc(-c2oc3ccccc3c(=O)c2C)c1 | 156.25 (≈ 587 µM) | 59 | 65 | 40 | 74 | 50 | 43 |
| Cc1c(-c2ccc(N(C)C)cc2)oc2ccccc2c1=O | 104.16 (≈ 373 µM) | 46 | 50 | 50 | 55 | 51 | 58 |
| Cc1ccc(-c2oc3ccccc3c(=O)c2C)cc1 | 102.04 (≈ 408 µM) | 43 | 62 | 60 | 38 | 42 | 60 |
| Cc1c(-c2ccc(N(C)C)cc2)oc2cc(O)ccc2c1=O | 58.82 (≈ 199 µM) | 51 | 57 | 50 | 50 | 29 | 55 |

Continued, in another order:

| IC50 [1] [µg/mL] | SMILES | growth inhibition (GI) (Pseudomonas aeruginosa) [%] | growth inhibition (GI) (Bacillus cereus) [%] | growth inhibition (GI) (Klebsiella pneumoniae) [%] | growth inhibition (GI) (Bacillus subtilis) [%] | growth inhibition (GI) (Escherichia coli) [%] | growth inhibition (GI) (Staphylococcus aureus) [%] |
| --- | --- | --- | --- | --- | --- | --- | --- |
| 208.3 (≈ 819 µM) | Cc1c(-c2ccccc2F)oc2ccccc2c1=O | 47 | 60 | 52 | 26 | 47 | 55 |
| 142.86 (≈ 536 µM) | COc1ccccc1-c1oc2ccccc2c(=O)c1C | 45 | 51 | 62 | 59 | 52 | 61 |
| 79.37 (≈ 315 µM) | Cc1c(-c2ccccc2O)oc2ccccc2c1=O | 43 | 50 | 70 | 83 | 38 | 70 |
| 156.25 (≈ 624 µM) | Cc1ccccc1-c1oc2ccccc2c(=O)c1C | 52 | 50 | 40 | 49 | 40 | 53 |
| 192.3 (≈ 710 µM) | Cc1c(-c2ccccc2Cl)oc2ccccc2c1=O | 44 | 60 | 59 | 25 | 51 | 57 |
